Assay results reported in patent publication US20250085201A1, “SUBSTITUTED QUADRUPOLAR FLUORESCENT DYES FOR LIVE CELL IMAGING” (Northwestern University, priority 2023, published 2025).

Tests used:
Format in all cases: physicochemical
[1] = Solubility (qualitative); details: PF6− salt; e.g. MeCN, Me2CO, DMF
[2] = Absolute fluorescence quantum yield (integrating sphere); details: in MeCN
Experimental: (§1) Fluorescent dyes were dissolved in the appropriate solvents to afford 1 mM solutions prior to spectroscopic analysis. A portion of 30 μL of a 1 mM solution was diluted by adding a selected solvent to a sample with a total volume of 3000 μL, affording a 1×10^−5 M solution. UV/Vis Absorption spectra were recorded in glass cuvettes on a UV-3600 Shimadzu spectrophotometer. Steady-state emission spectra were acquired in quartz cuvettes with optical path-lengths of 10 mm containing the solution being analyzed using a HORIBA Fluoromax4 spectrofluorometer, which was equipped with an integrating sphere for determining the absolute photoluminescence quantum yield.
(§2) Steady-state and time-resolved emission spectra for dyes 1-6, 7·2PF6 and 9·4PF6 were acquired using a HORIBA Fluorolog-3 spectrofluorometer, equipped with a time-correlated single photon counting (TCSPC) module (diode laser excitation at λ=375 nm) and an integrating sphere, which was used for absolute photo-luminescence quantum yield determinations. Picosecond time-resolved fluorescence measurements were recorded using a commercial direct-diode-pumped 100 kHz amplifier (Spirit 1040-HE, Spectra-Physics), producing a fundamental beam of 1040 nm (350 fs, 12 W) which was used to pump a non-collinear optical parametric amplifier (Spirit-NOPA, SpectraPhysics) capable of delivering tunable, high-repetition-rate pulses with pulse widths as short as sub-20 fs. Dyes 1-6, 7·2PF6 and 9·4PF6 were excited with 350 nm, 2 nJ laser pulses. Fluorescence was detected using a Hamamatsu C4780 Streakscope as previously described in the literature. Samples were prepared in 2-mm quartz cuvettes. All data were acquired in the single-photon-counting mode using the Hamamatsu HPD-TA software. The temporal resolution was approximately 2% of the sweep window. Single wavelength kinetic analysis was performed using a nonlinear least-squares fit to a sum of exponentials convoluted with an instrument response function. Visible and near-infrared femtosecond and nanosecond transient absorption (fsTA and nsTA, respectively) spectroscopies were performed following descriptions already recorded in the literature. The 330 nm, ˜100 fs pump pulses were generated at 1 μJ per pulse using a commercial collinear optical parametric amplifier (TOPAS-Prime, Light-Conversion, Ltd.); 414-nm pump pulses were obtained by second-harmonic generation of the 828 nm fundamental. The pump polarization was randomized using a commercial depolarizer (DPU-25-A, Thorlabs, Inc.) to eliminate any orientational dynamics resulting from the experiment. Spectra were collected on commercial spectrometers (customized Ultrafast Systems Helios and EOS spectrometers, for fsTA and nsTA, respectively) for each time window. All samples were stirred to avoid localized heating or degradation effects. The optical density was maintained at 0.6 for all samples.
Steady-state and time-resolved emission spectra for dyes 7·2PF6 and 9·4PF6 were acquired using a HORIBA Fluorolog-3 spectrofluorometer, equipped with a time-correlated single photon counting (TCSPC) module (diode laser excitation at =375 nm) and an integrating sphere, which was used for absolute photo-luminescence quantum yield determinations. Picosecond time-resolved fluorescence measurements were recorded using a commercial direct-diode-pumped 100 kHz amplifier (Spirit 1040-HE, Spectra-Physics), producing a fundamental beam of 1040 nm (350 fs, 12 W) which was used to pump a non-collinear optical parametric amplifier (Spirit-NOPA, SpectraPhysics) capable of delivering tunable, high-repetition-rate pulses with pulse widths as short as sub-20 fs. The samples 7·2PF6 and 9·4PF6 were excited with […], 2 nJ laser pulses. Fluorescence was detected using a Hamamatsu C4780 Streakscope as previously described in the literature.^71 Samples were prepared in 2-mm quartz cuvettes. All data were acquired in the single-photon-counting mode using the Hamamatsu HPD-TA software. […]

[3] = Transient absorption (fsTA/nsTA) and time-resolved fluorescence spectroscopy; details: in MeCN; for non-radiative decay rate constant kNR: kNR = kobs(1 − ΦF); for radiative decay rate constant kR: kR = kobsΦF
Text: The excited-state properties of these quadrupolar dyes were investigated using transient absorption (TA) spectroscopy. The TA data of dyes 1-4 and 6 in MeCN with lex=350 nm (FIGS. 9-12 and 15) show similar spectra with the same general electronic evolution, though with differing kinetics. Following excitation, strong excited-state absorption features appear between ˜450-500 nm along with a strong single peak in the near-infrared region, both of which are associated with Sn←S1 absorptions. The visible bands redshift over the following ˜100 ps, while the near-infrared band peaks first blueshift in the initial ˜10 ps before settling. These near-infrared absorption bands are similar to those observed^59,60 in extended bipyridinium compounds. Following these shifts, the excited states decay via emission with lifetimes between 3-4 ns as confirmed by time-resolved fluorescence (TRF) spectroscopy. The spectral shape of the transient species is generally maintained throughout their lifetimes, implying that the dynamics in each dye all occur on a single electronic excited state (S1) prior to emission. The spectral shifts at early times may arise due to excited-state symmetry breaking^77-78 in the quadrupolar dyes, wherein fluctuations in the instantaneous electrostatic environment afforded by the solvent transiently favor wavefunction localization on one side of the symmetric molecule, creating an excited state with a large dipole moment that is associated with the Stokes shift observed^79 in the fluorescence spectra. This localization can lead to changes in the transient absorption spectra as a result of the breakdown^42,80 of the Laporte rule. The shifts at longer times may arise from solvent or structural relaxation of the dyes.
as §2, with “samples. […]” for “samples.”

[4] = Absolute fluorescence quantum yield (integrating sphere); details: 414 nm excitation
[5] = Transient absorption (fsTA/nsTA) and time-resolved fluorescence spectroscopy; details: in PhMe
[6] = Steady-state UV/Vis absorption and fluorescence emission spectra; details: THF, 10 μM
Experimental: Fluorescent dyes 1-6, 7·2PF6, 8·2PF6, 9·4PF6 and 9·4Cl were dissolved in THF (1-5), MeCN (6, 7·2PF6, 8·2PF6 and 9.4PF6) and H2O (9.4Cl), respectively, to afford 10 μM solutions prior to spectroscopic analysis. For comparison, their normalized (i) UV/Vis absorption (FIG. 2) and (ii) the fluorescence emission (FIG. 3) spectra of quadrupolar dyes are overlayed, displaying a large range of S1 absorbance and emission maxima, which rely highly on their quadrupolarity that is correlated to the electron-deficiency of the ARs.
as §1

| Compound | Quantum Yield (ΦF) [2] | UV absorption band centre [6] [nm] | emission λem [6] [nm] | solubility in polar organic solvents [1] | excited-state (emissive) lifetime [3] [ns] | rate constant k1 from TA data [3] | rate constant k2 from TA data [3] | rate constant k3 from TA data [3] | rate constant k4 from TA data [3] | non-radiative decay rate constant kNR [3] | radiative decay rate constant kR [3] | ΦF in the solid-state (powder) [4] | CT state decay back to the ground state ([3]; excited at 350 nm) [ns] | initially excited state (S1) decay time ([3]; excited at 350 nm) [ps] | non-radiative decay rate constant kNR ([3]; kobs = k1) | triplet state lifetime (diffusional quenching-limited) ([5]; deaerated solution) [µs] | CT state decay to triplet state ([5]; excited at 350 nm) [ns] | S1 state decay time ([5]; excited at 350 nm) [ps] |
| --- | --- | --- | --- | --- | --- | --- | --- | --- | --- | --- | --- | --- | --- | --- | --- | --- | --- | --- |
| COc1cc2c(OC)cc1-c1cc[n+](cc1)Cc1ccc(cc1)C[n+]1ccc(cc1)-c1cc(OC)c(cc1OC)-c1cc[n+](cc1)Cc1ccc(cc1)C[n+]1ccc-2cc1 [9·4PF6] | 0.28 | – | – | readily soluble | 3.45±0.01 | (1.4 ± 0.3 ps)^−1 (ps)^−1 | (188 ± 4 ps)^−1 (ps)^−1 | (3.45 ± 0.01 ns)^−1 (ns)^−1 | (450 ± 70 ns)^−1 (ns)^−1 | (4.79 ± 0.03 ns)^−1 (ns)^−1 | (12.3 ± 0.2 ns)^−1 (ns)^−1 | 0.030±0.005 | – | – | – | – | – | – |
| CCCCCCCCOc1cc(-c2ccc(C#N)cc2)c(OCCCCCCCC)cc1-c1ccc(C#N)cc1 [Dye 3] | 0.81 | – | – | – | – | (0.8 ± 0.3 ps)^−1 (ps)^−1 | (99 ± 2 ps)^−1 (ps)^−1 | (4.23 ± 0.02 ns)^−1 (ns)^−1 | (314 ± 1 ns)^−1 (ns)^−1 | (22.3 ± 0.6 ns)^−1 (ns)^−1 | (5.22 ± 0.03 ns)^−1 (ns)^−1 | – | – | – | – | – | – | – |
| CCCCCCCCOc1cc(-c2ccc([N+](=O)[O-])cc2)c(OCCCCCCCC)cc1-c1ccc([N+](=O)[O-])cc1 [Dye 5] | <0.005 | – | – | – | – | (4.3 ± 0.3 ps)^−1 (ps)^−1 | (28 ± 2 ps)^−1 (ps)^−1 | (102.7 ± 0.3 ns)^−1 (ns)^−1 | – | – | <(0.9 ns)^−1 (ns)^−1 | – | 102 | 4.3±0.3 | >(4 ps)^−1 (ps)^−1 | 1 | 18 | 7.9±0.3 |
| CCCCCCCCOc1cc(-c2ccc(C(=O)OC)cc2)c(OCCCCCCCC)cc1-c1ccc(C(=O)OC)cc1 [Dye 4] | 0.78 | – | – | – | – | (0.7 ± 0.3 ps)^−1 (ps)^−1 | (132 ± 7 ps)^−1 (ps)^−1 | (3.80 ± 0.01 ns)^−1 (ns)^−1 | (210 ± 2 ns)^−1 (ns)^−1 | (17.3 ± 0.4 ns)^−1 (ns)^−1 | – | – | – | – | – | – | – | – |
| COc1cc(-c2ccncc2)c(OC)cc1-c1ccncc1 [Dye 6] | 0.63 | – | – | – | – | (0.6 ± 0.3 ps)^−1 (ps)^−1 | (52 ± 1 ps)^−1 (ps)^−1 | (4.05 ± 0.02 ns)^−1 (ns)^−1 | (163 ± 2 ns)^−1 (ns)^−1 | (11.0 ± 0.2 ns)^−1 (ns)^−1 | (6.43 ± 0.05 ns)^−1 (ns)^−1 | – | – | – | – | – | – | – |

Now from value to molecule, other results behind:

| Quantum Yield (ΦF) [2] | UV absorption band centre [6] [nm] | emission λem [6] [nm] | Compound | solubility in polar organic solvents [1] | excited-state (emissive) lifetime [3] [ns] | rate constant k1 from TA data [3] | rate constant k2 from TA data [3] | rate constant k3 from TA data [3] | rate constant k4 from TA data [3] | non-radiative decay rate constant kNR [3] | radiative decay rate constant kR [3] | ΦF in the solid-state (powder) [4] | CT state decay back to the ground state ([3]; excited at 350 nm) [ns] | initially excited state (S1) decay time ([3]; excited at 350 nm) [ps] | non-radiative decay rate constant kNR ([3]; kobs = k1) | triplet state lifetime (diffusional quenching-limited) ([5]; deaerated solution) [µs] | CT state decay to triplet state ([5]; excited at 350 nm) [ns] | S1 state decay time ([5]; excited at 350 nm) [ps] |
| --- | --- | --- | --- | --- | --- | --- | --- | --- | --- | --- | --- | --- | --- | --- | --- | --- | --- | --- |
| 0.56 | – | – | CCCCCCCCOc1cc(-c2ccc(C(F)(F)F)cc2)c(OCCCCCCCC)cc1-c1ccc(C(F)(F)F)cc1 [Dye 2] | – | – | (1.4 ± 0.3 ps)^−1 (ps)^−1 | (85 ± 2 ps)^−1 (ps)^−1 | (3.16 ± 0.01 ns)^−1 (ns)^−1 | (150 ± 2 ns)^−1 (ns)^−1 | (7.2 ± 0.1 ns)^−1 (ns)^−1 | (5.64 ± 0.05 ns)^−1 (ns)^−1 | – | – | – | – | – | – | – |
| 0.13 | 316 | 380 | CCCCCCCCOc1cc(-c2ccc(F)cc2)c(OCCCCCCCC)cc1-c1ccc(F)cc1 [Dye 1] | – | – | (5.4 ± 0.6 ps)^−1 (ps)^−1 | (83 ± 7 ps)^−1 (ps)^−1 | (3.38 ± 0.03 ns)^−1 (ns)^−1 | (155 ± 3 ns)^−1 (ns)^−1 | (3.89 ± 0.02 ns)^−1 (ns)^−1 | – | – | – | – | – | – | – | – |
